System: Flt3 mRNA
Test: Flt3 mRNA interference by synthesized siRNA, real-time RT-PCR (Example 1)
Assay type: cell-based, human
Conditions: for inhibition percentage (%) of the relative mRNA expression level (Flt3 mRNA/GAPDH mRNA): siRNA 200 pmol, Oligofectamin, after 24 hours, vs cells transfected without siRNA
Experimental: Each kind of cell selected from HL-60 cells [Flt3 WT (wild-type) low expressing cells; ATCC CCL-240], EoL-1 cells [Flt3 WT (wild-type) highly expressing cells; ECACC 94042252] and MV4-11 cells [Flt3/ITD highly expressing cells; ATCC CRL-9591] was cultured at 37° C. in an RPMI 1640 medium (manufactured by TAKARA BIO INC.) supplemented with 10% by volume fetal bovine serum (FBS) in the presence of 5% by volume CO2.
Then, the cells (2×10^5 cells/nil) were pre-cultured for 24 hours in a 6-well plate, then recovered, and suspended so as to give a density of 1.5×10^5 cells/ml in Opti-MEM (trade name, manufactured by Invitrogen), and the synthesized siRNA was added to the resulting suspension so as to give a final concentration of 200 pmol. Transfection was carried out using Oligofectamin (trade name, manufactured by Invitrogen) in an amount of 4 μl/reaction, according to an Invitrogen's protocol attached to Oligofectamin (trade name). As a control, the cells were subjected to similar operations without adding the siRNA. The unspecific influence of the siRNA was evaluated using an siRNA to a BCR/ABL chimera mRNA.
Confirmation of RNA interference of the target gene was carried out by determining change in mRNA level by a real-time RT-PCR method as shown below.
Using Oligofectamin (trade name, manufactured by Invitrogen), each kind of cell was transfected with the synthesized siRNA. After 24 hours, whole RNA was extracted from the resulting cells with TRIzol™ reagent (manufactured by Invitrogen), and the resulting product was treated with DNaseI (manufactured by TAKARA BIO INC.). The transfection, the extraction of the whole RNA and the treatment with DNaseI were carried out according to a manufacturer's protocol of the reagent used.
The real-time PCR method was carried out using a Real Time One Step RNA PCR Kit (trade name, manufactured by TAKARA BIO INC.), 100 ng of the resulting RNA as a template and a pair of primers (each 20 pmol), that is, an oligonucleotide having the nucleotide sequence of SEQ ID NO: 13 and an oligonucleotide having the nucleotide sequence of SEQ ID NO: 14. In the real-time RT-PCR method, change in fluorescence based on SYBER Green I (manufactured by TAKARA BIO INC.) was determined with Light Cycler (trade name, manufactured by Roche). The RNA level was standardized by similarly determining GAPDH mRNA with primers set forth in SEQ ID NOs: 15 and 16.
The PCR conditions were as follows: after incubation was carried out at 95° C. for 30 seconds, the reaction was carried out in 40 cycles each consisting of the reaction at 95° C. for 1 second, then at 60° C. for 10 seconds, and at 72° C. for 30 seconds.
The inhibition percentage (%) of the relative mRNA expression level (Flt3 mRNA/GAPDH mRNA) changed by using the synthesized siRNA, as calculated assuming that the relative mRNA expression level (Flt3 mRNA/GAPDH mRNA) of the cells only subjected to each operation of the transfection without adding the synthesized siRNA was 100%, was shown in Table 1.

[1] = MV4-11 (ITD mutation-highly expressing)

With “siRNA3: siRNA to juxtamembrane region (Flt3/JMD region) (target SEQ ID NO: 7); sense SEQ ID NO: 8, antisense SEQ ID NO: 9 (sense UAUGAAUAUGAUCUCAAAUTT; antisense AUUUGAGAUCAUAUUCAUATT; chemistry not given here)” the “Relative ratio of inhibition defining RNA interference effect in EoL1 as 1” value (EoL1 (WT-highly expressing), the reference itself) was “(1)”, the “inhibition percentage (%) of the relative mRNA expression level (Flt3 mRNA/GAPDH mRNA)” value (EoL1 (WT-highly expressing)) was 63% and the “selective inhibition of Flt3 mRNA expression relative to the inhibition ratio in the Flt3 low expressing cells” value (Flt3 highly expressing cells vs Flt3 low expressing cells) was no less than 1.6 fold. For the same substance, the “inhibition of Flt3 mRNA expression relative to the cells without using an siRNA” value (Flt3 highly expressing cells, regardless of the presence or absence of ITD mutation) was 65%, the “inhibition percentage (%) of the relative mRNA expression level (Flt3 mRNA/GAPDH mRNA)” value (HL60 (WT-low expressing)) was 38% and the “Relative ratio of inhibition defining RNA interference effect in EoL1 as 1” value [1] was “(1)”. For the same substance, the “inhibition percentage (%) of the relative mRNA expression level (Flt3 mRNA/GAPDH mRNA)” value [1] was 65%.

Reference: patent publication US8138159B2, “Composition for inhibiting function of human Flt3” (Takara Bio Inc., priority 2003, dated 2012)
